The structures appear in SMILES notation. pIC50: −log10 of the molar value. Positions of bridges follow the written chain, without caps; N, C: chain ends. Residues, ends and D or L forms follow the SMILES beside them.

Holding throughout (experiment): cell-based
One assay has as its target hNav1.5 (Homo sapiens, UniProt Q14524). Conditions: IonWorks Quattro, use-dependent block, hNav1.5; read-out: IWQ Use Nav1.5.
The target of the next assay is hNav1.3 (Homo sapiens, UniProt Q9NY46). The note with it: IonWorks Quattro, use-dependent block, hNav1.3; read-out: IWQ Use Nav1.3. For orientation: In patch-clamp work, channel activity is measured electrically.
The next assay addresses hNav1.7 (Homo sapiens, UniProt Q15858). The class given is cell-based. The note with it: IonWorks Quattro, use-dependent block, hNav1.7; read-out: IWQ Use Nav1.7.

Chain of hNav1.5 (Q14524 whole entry, looked up): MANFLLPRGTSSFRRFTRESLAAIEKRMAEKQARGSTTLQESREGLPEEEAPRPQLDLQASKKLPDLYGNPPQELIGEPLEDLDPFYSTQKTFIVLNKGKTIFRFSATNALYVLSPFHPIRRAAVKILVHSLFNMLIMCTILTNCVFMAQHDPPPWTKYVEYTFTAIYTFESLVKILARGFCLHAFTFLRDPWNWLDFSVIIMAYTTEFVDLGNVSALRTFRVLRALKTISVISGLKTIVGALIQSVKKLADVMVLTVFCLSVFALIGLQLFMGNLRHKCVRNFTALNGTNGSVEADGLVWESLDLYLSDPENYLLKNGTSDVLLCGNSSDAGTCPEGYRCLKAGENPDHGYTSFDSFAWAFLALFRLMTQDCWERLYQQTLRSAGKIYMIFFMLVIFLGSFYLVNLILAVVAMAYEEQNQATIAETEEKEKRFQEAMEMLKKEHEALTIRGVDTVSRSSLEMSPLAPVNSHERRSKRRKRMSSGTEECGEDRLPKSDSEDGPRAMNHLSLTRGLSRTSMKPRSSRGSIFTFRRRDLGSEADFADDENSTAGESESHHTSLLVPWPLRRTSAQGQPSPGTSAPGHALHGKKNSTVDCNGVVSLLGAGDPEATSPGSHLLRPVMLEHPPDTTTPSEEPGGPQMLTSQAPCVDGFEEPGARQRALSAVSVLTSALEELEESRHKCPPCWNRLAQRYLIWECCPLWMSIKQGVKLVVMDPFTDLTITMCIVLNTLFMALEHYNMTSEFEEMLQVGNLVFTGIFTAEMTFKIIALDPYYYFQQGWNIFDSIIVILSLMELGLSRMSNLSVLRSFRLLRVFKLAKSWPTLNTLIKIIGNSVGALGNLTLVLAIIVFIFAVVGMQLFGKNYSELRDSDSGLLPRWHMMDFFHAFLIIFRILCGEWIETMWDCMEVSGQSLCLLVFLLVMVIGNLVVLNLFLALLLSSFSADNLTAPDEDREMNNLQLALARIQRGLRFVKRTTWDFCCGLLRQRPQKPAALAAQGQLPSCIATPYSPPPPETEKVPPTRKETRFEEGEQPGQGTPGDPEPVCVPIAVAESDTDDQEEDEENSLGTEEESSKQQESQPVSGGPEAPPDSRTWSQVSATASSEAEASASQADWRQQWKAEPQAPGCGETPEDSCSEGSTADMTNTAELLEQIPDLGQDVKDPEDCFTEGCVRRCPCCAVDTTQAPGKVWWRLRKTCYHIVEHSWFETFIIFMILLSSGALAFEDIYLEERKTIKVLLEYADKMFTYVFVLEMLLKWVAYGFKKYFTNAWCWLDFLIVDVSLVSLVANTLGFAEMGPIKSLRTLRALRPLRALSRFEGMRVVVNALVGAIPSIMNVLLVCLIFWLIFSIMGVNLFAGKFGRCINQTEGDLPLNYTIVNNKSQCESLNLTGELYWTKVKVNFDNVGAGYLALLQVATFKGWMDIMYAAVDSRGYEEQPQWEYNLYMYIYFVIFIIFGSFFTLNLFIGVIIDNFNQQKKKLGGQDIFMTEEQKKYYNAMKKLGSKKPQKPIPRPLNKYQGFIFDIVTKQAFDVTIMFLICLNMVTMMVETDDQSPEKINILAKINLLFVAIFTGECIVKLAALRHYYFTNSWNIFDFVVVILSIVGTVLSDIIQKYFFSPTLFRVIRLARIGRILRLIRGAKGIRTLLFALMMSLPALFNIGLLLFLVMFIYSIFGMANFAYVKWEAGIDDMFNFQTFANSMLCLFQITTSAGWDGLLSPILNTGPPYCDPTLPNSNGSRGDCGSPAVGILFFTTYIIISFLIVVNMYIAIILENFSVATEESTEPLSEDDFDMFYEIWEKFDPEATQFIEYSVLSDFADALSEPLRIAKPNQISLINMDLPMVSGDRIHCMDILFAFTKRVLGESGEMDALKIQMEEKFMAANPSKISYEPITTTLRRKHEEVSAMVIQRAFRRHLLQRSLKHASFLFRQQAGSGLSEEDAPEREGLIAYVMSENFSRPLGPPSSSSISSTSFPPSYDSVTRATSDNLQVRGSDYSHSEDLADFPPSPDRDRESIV
Chain of hNav1.3 (Q9NY46 whole entry, looked up): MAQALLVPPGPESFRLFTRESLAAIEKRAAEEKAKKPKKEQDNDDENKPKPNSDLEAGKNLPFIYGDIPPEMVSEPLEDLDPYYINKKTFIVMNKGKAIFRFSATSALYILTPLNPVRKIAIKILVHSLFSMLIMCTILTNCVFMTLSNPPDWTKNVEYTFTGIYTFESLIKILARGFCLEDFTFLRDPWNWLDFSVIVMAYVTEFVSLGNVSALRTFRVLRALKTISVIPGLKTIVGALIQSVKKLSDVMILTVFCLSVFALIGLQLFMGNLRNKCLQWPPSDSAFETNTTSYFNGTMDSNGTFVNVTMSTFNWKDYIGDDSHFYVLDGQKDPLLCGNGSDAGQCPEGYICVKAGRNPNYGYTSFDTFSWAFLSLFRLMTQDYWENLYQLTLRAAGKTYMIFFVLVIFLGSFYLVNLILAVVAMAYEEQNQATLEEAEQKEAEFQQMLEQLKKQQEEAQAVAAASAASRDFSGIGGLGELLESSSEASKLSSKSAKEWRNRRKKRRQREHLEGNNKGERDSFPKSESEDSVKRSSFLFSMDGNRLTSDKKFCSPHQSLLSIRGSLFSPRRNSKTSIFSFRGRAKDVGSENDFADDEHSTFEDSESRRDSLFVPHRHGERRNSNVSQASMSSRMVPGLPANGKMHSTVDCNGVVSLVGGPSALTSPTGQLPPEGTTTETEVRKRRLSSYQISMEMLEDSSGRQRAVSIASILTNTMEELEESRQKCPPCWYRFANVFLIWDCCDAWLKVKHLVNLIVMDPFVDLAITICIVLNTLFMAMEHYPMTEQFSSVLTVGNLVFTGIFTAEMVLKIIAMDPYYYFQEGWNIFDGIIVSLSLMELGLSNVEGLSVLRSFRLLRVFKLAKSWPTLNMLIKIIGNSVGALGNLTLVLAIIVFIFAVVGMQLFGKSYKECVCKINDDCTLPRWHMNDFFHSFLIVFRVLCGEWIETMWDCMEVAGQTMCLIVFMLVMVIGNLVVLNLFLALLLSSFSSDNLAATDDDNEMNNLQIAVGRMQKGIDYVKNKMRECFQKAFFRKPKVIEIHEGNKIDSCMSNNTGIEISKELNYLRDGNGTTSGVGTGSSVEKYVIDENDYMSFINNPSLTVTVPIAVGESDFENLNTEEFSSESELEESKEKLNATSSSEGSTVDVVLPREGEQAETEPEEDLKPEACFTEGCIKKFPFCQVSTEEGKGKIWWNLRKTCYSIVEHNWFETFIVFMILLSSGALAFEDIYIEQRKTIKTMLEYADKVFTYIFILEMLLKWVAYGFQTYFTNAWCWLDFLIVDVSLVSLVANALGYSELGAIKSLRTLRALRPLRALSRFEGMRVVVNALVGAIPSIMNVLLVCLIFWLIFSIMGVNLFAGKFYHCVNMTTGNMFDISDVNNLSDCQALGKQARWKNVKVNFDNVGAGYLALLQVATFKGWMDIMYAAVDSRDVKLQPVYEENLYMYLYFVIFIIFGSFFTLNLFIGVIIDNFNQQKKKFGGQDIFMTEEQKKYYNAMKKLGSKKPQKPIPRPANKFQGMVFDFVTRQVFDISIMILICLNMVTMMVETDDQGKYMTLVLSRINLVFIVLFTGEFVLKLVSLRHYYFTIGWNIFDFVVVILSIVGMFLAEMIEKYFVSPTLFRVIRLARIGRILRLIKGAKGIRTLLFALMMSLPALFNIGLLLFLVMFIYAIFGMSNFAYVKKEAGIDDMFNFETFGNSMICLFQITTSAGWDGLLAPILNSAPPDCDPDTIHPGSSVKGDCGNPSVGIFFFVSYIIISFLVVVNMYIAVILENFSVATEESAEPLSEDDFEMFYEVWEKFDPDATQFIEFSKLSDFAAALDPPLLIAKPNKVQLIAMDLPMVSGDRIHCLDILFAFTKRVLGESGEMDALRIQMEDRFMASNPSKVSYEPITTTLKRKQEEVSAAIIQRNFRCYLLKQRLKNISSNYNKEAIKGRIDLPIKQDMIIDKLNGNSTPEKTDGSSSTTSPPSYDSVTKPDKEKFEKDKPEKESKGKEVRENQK

With `CC[C@H](C)[C@@H]1NC(=O)[C@@H]2CSSC[C@@H]3NC(=O)[C@H](C(C)C)NC(=O)[C@H](CC(C)C)NC(=O)[C@H](CC(N)=O)NC(=O)[C@@H]4CCCN4C(=O)[C@H](CCCNC(=N)N)NC(=O)[C@H](CSSC[C@H](NC(=O)[C@@H](N)CC(=O)O)C(=O)N[C@@H](CC(C)C)C(=O)NCC(=O)N[C@@H](C)C(=O)N[C@@H](Cc4ccccc4)C(=O)N[C@@H](CCCNC(=N)N)C(=O)N[C@@H](CCCCN)C(=O)N2)NC(=O)[C@H](CSSC[C@@H](C(=O)N[C@@H](CCCCN)C(=O)N[C@@H](Cc2ccc(O)cc2)C(=O)N[C@H](C(=O)N[C@@H](Cc2ccccc2)C(=O)O)C(C)C)NC(=O)[C@H](Cc2c[nH]c4ccccc24)NC(=O)[C@H](CCCCN)NC(=O)[C@H](Cc2c[nH]cn2)NC(=O)[C@H]([C@@H](C)O)NC(=O)[C@H](CCCNC(=N)N)NC(=O)[C@H](CO)NC3=O)NC(=O)[C@H](CCCCN)NC(=O)[C@H](CC(=O)O)NC(=O)[C@H](CC(N)=O)NC(=O)[C@H](CC(=O)O)NC(=O)[C@@H]2CCCN2C1=O` [compound 829] (H-DCLGAFRKCIPDNDKCCRPNLVCSRTHKWCKYVF-OH; disulfide 2-17, 9-23, 16-30), the results for the pIC50 on hNav1.5, at hNav1.3 and on hNav1.7 were below 5.30, 5.64 and below 5.30, respectively.

For `CC[C@H](C)[C@@H]1NC(=O)[C@@H]2CSSC[C@@H]3NC(=O)[C@H](C(C)C)NC(=O)[C@H](CC(C)C)NC(=O)[C@H](CC(N)=O)NC(=O)[C@@H]4CCCN4C(=O)[C@H](CCCNC(=N)N)NC(=O)[C@H](CSSC[C@H](NC(=O)[C@@H](N)CC(=O)O)C(=O)N[C@@H](CC(C)C)C(=O)NCC(=O)N[C@@H](C)C(=O)N[C@@H](Cc4ccccc4)C(=O)N[C@@H](CCCNC(=N)N)C(=O)N[C@@H](CCCCN)C(=O)N2)NC(=O)[C@H](CSSC[C@@H](C(=O)N[C@@H](CCCCN)C(=O)N[C@@H](Cc2ccc(O)cc2)C(=O)N[C@H](C(=O)N[C@@H](Cc2ccccc2)C(=O)O)C(C)C)NC(=O)[C@H](Cc2c[nH]c4ccccc24)NC(=O)[C@H](CC(C)C)NC(=O)[C@H](Cc2c[nH]cn2)NC(=O)[C@H]([C@@H](C)O)NC(=O)[C@H](CCCNC(=N)N)NC(=O)[C@H](CO)NC3=O)NC(=O)[C@H](CCCCN)NC(=O)[C@H](CC(=O)O)NC(=O)[C@H](CC(N)=O)NC(=O)[C@H](CC(=O)O)NC(=O)[C@@H]2CCCN2C1=O` [compound 830] (H-DCLGAFRKCIPDNDKCCRPNLVCSRTHLWCKYVF-OH; disulfide 2-17, 9-23, 16-30), the pIC50 at hNav1.5, on hNav1.3 and at hNav1.7 was below 5.30 each time.

Regarding `CC[C@H](C)[C@@H]1NC(=O)[C@@H]2CSSC[C@@H]3NC(=O)[C@H](C(C)C)NC(=O)[C@H](CC(C)C)NC(=O)[C@H](CC(N)=O)NC(=O)[C@@H]4CCCN4C(=O)[C@H](CCCNC(=N)N)NC(=O)[C@H](CSSC[C@H](NC(=O)[C@@H](N)CC(=O)O)C(=O)N[C@@H](CC(C)C)C(=O)NCC(=O)N[C@@H](C)C(=O)N[C@@H](Cc4ccccc4)C(=O)N[C@@H](CCCNC(=N)N)C(=O)N[C@@H](CCCCN)C(=O)N2)NC(=O)[C@H](CSSC[C@@H](C(=O)N[C@@H](CCCCN)C(=O)N[C@@H](Cc2ccc(O)cc2)C(=O)N[C@H](C(=O)N[C@@H](Cc2ccccc2)C(=O)O)C(C)C)NC(=O)[C@H](Cc2c[nH]c4ccccc24)NC(=O)[C@H](CCSC)NC(=O)[C@H](Cc2c[nH]cn2)NC(=O)[C@H]([C@@H](C)O)NC(=O)[C@H](CCCNC(=N)N)NC(=O)[C@H](CO)NC3=O)NC(=O)[C@H](CCCCN)NC(=O)[C@H](CC(=O)O)NC(=O)[C@H](CC(N)=O)NC(=O)[C@H](CC(=O)O)NC(=O)[C@@H]2CCCN2C1=O` [compound 831] (H-DCLGAFRKCIPDNDKCCRPNLVCSRTHMWCKYVF-OH; disulfide 2-17, 9-23, 16-30), the figures for the pIC50 at hNav1.5, on hNav1.3 and on hNav1.7 were below 5.30, 5.80 and below 5.30, respectively.
